Test results: patent US12390472B2 (SUZHOU SINOVENT PHARMACEUTICALS CO., LTD., priority 2018, dated 2025)
Read-outs that look alike come from different tables or passages of the source.

How the values were obtained:
WSU-DLCL2 = assay: Methylated lysine of histone-H3 (H3K27Me3) detection by ELISA, WSU-DLCL2 cells; format: cell-based; conditions: Homo sapiens, WSUDLCL2, 168 h; WSU-DLCL2, 7 days treatment, H3K27Me3 normalized to total histone-3; read-out: IC50 of cell methylation, WSU-DLCL2
Description: (§1) The operations for adherent cells and suspension cells cultured in 96-well plates were slightly different after they had been treated with compound (4-fold dilution 20 uM-0.009 nM, 3 duplicate wells) for 7 days, and the operations are summarized as follows: For adherent cells, after discarding the medium, 75 uL of 1-fold hypotonic lysis buffer (10 mM Tris-HCl, pH 7.5, containing halt protease inhibitor and PMSF with a final concentration of 1 mM) was added; the plate was frozen at −80° C. for at least 1 h or overnight; once the plate was taken away from the −80° C. environment, 120 uL (to a final volume of about 195 uL) of 1-fold hypotonic lysis buffer (containing protease inhibitor) was added, and the plate was thawed at room temperature and shaken for 2 min for mixing; and 8 uL (to a final volume of about 203 uL) of 2.5 M NaCl was added to each well to a final NaCl concentration of 100 mM and then the plate was shaken for an additional 2 min for mixing.
(§2) For suspension cells (final volume of medium was 100 uL/well), 25 uL of 5-fold hypotonic lysis buffer (50 mM Tris-HCl, pH 7.5, containing halt protease inhibitor and PMSF with a final concentration of 1 mM) was added, and the plate was frozen at −80° C. for at least 1 h or overnight. Once the plate was taken away from the −80° C. environment, 20 uL of 0.625 M NaCl was added to each well to a final NaCl concentration of about 100 mM, and the mixture was mixed well.
(§3) 75 uL or 100 uL of sample (with duplicate wells provided) was added to two 96-well ELISA plates (ThermoFisher Scientific; Immulon 4HBX 3885) and the plates were coated with total protein lysate and incubated overnight at 4° C. 50 uL of lysate was retained for protein quantitation if necessary. The sealing of the plates must be ensured. The plates were washed twice with 300 uL of 1×PBST (PBS containing 0.05% Tween 20) per well. Each well was blocked with 300 uL of dilution (PBS+2% BSA+0.05% Tween 20), incubated for 2 h at room temperature, and washed twice with 1×PBST. Primary antibodies were diluted with a dilution solution containing 1% BSA+0.05% Tween 20. 75-100 uL of anti-H3K27Me3 antibody (CST; 9733; 50% glycerol stock, 1:1,000) or anti-total histone-3 antibody (Abcam; ab1791; 50% glycerol stock, 1:10,000) was added to each well. The plates were incubated for 90 min at room temperature or incubated overnight at 4° C. The plates were washed three times with 1×PBST. 75-100 uL of anti-Rb-IgG-HRP secondary antibody (Cell Signaling Technology; 7074) was added per well, 1:2000 diluted secondary antibody for anti-H3K 27Me3 plate and 1:6000 diluted secondary antibody for anti-histone total histone-3 plate. The plates were incubated at room temperature for 90 min. The plate assayed with anti-histone-3 antibody was used to normalize the data for the corresponding plate assayed with anti-H3K 27me3. The plates must be washed at least three times with 1×PBST after primary or secondary antibody incubation. The plates were assayed by adding 75-100 uL of 3,3′,5,5′-tetramethylbenzidine substrate (CST or ThermoFisher Scientific; TMBS) per well and incubated away from light for 30 min at 37° C. The reaction was terminated by adding 100 uL of 0.5 M H2SO4 per well. The absorbance was read at 450 nm. Curve fitting was performed using Graph Pad program.

EZH2 enzyme complex = EZH2 enzyme complex (Homo sapiens (Human), UniProt Q15910); assay: Test on EZH2 inhibitory activity (TR-FRET); format: biochemical; conditions: EZH2 enzyme complex 25 ng/uL, histone H3 peptide 4 uM, SAM 2 uM, 300 min; read-out: IC50 of EZH2 inhibition
Sequence of EZH2 enzyme complex (Q15910 whole entry): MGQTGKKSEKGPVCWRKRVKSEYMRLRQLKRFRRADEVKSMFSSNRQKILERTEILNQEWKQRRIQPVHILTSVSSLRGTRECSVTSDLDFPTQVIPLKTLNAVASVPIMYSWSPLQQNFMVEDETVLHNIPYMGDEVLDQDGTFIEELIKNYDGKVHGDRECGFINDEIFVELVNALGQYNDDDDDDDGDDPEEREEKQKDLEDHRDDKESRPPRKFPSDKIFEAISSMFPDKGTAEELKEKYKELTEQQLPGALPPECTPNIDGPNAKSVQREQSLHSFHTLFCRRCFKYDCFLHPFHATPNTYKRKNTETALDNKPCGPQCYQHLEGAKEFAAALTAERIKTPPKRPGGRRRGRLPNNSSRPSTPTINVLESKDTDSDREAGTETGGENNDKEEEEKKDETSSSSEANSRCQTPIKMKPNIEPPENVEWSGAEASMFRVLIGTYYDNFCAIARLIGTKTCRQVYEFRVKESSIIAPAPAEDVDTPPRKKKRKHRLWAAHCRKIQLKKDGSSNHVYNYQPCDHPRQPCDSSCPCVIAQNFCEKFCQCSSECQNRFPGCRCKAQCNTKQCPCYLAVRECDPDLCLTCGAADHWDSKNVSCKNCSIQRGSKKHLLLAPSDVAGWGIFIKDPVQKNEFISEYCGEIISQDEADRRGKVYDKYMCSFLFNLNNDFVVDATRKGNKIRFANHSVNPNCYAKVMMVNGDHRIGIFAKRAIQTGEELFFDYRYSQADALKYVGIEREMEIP
Sequence of EZH2 enzyme complex (O75530 whole entry partner): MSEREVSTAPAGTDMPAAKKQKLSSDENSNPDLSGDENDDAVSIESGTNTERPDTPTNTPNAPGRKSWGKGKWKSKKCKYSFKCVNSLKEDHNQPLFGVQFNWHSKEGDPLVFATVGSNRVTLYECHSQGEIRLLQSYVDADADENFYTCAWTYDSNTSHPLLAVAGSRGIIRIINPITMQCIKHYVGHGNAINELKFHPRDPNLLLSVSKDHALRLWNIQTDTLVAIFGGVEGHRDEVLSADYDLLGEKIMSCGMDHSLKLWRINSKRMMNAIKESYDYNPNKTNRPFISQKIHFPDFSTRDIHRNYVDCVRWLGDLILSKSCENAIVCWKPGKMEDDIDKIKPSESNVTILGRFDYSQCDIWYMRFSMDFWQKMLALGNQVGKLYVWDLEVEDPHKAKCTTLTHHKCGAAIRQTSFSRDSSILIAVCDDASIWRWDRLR
Sequence of EZH2 enzyme complex (Q15022 whole entry partner): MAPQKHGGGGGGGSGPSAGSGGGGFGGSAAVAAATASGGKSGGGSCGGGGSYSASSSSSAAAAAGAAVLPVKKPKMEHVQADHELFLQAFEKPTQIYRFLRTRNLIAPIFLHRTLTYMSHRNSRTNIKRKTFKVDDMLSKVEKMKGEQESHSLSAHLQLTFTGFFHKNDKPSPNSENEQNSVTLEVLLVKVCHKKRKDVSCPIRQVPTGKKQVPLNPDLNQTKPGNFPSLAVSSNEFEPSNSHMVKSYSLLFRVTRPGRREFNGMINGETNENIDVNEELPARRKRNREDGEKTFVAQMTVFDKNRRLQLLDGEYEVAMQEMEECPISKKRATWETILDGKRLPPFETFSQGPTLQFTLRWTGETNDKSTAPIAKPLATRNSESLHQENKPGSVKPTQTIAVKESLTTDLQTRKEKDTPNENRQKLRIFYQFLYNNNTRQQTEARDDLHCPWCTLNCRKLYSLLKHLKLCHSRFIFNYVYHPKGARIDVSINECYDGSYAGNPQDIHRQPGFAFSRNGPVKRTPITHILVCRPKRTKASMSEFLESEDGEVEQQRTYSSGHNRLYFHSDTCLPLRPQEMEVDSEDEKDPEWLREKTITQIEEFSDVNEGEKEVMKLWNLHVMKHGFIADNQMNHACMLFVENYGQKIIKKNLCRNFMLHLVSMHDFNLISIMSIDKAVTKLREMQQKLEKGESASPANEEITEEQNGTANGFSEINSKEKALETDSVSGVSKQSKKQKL
Description: • EZH2 enzyme complex: 25 ng/uL • Histone H3 peptide substrate: 4 uM • SAM: 2 uM • Reaction time: 300 min Procedures • 1. Each compound disclosed herein was diluted with 1×HMT buffer and transferred to a 384-well assay plate at 3 uL per well; • 2. The EZH2 enzyme solution was prepared with 1×HMT buffer and transferred to the 384-well assay plate at 2 uL per well; • 3. The above assay plate was incubated for 30 min; • 4. A mixture solution of SAM and histone H3 peptide substrate at 2-fold concentration was prepared with 4×HMT buffer; • 5. 5 uL of the mixture solution of SAM and substrate was added to each well of the assay plate to react at room temperature, and the assay plate was sealed with plastic; • 6. After incubation for 5 h, 10 uL of TR-FRET detection buffer containing Tb-labeled antibody and dye-labeled receptor was added to each well of the assay plate; • 7. After incubation for 1 h at room temperature, the assay plate was detected; • 8.

Pfeiffer = assay: Methylated lysine of histone-H3 (H3K27Me3) detection by ELISA, Pfeiffer cells; format: cell-based, human; conditions: 7 days treatment, H3K27Me3 normalized to total histone-3, read-out: IC50 of cell methylation, Pfeiffer
Description: as §1, §2, §3

Row | SMILES | IC50 (WSU-DLCL2) [µM] | IC50 (EZH2 enzyme complex) [µM] | IC50 (Pfeiffer; Homo sapiens, 168 h) [µM] | IC50 (Pfeiffer) [µM]
1 | CCN(c1cc(C2CCC2)cc(C(=O)NCc2c(C)cc(C)[nH]c2=O)c1C)C1CCOCC1 [Example 15, 5-cyclobutyl-N-((4,6-dimethyl-2-oxo-1,2-dihydropyridin-3-yl)methyl)-3-(ethyl(tetrahydro-2H-pyran-4-yl)amino)-2-methylbenzamide] | 0.05 to 0.5 | 0.01 to 0.1 | < 0.05 | 
2 | CCN(c1cc(OC2CC(CN3CCOCC3)C2)cc(C(=O)NCc2c(C)cc(C)[nH]c2=O)c1C)C1CCOCC1 (stereo not drawn) [Example 16, N-((4,6-dimethyl-2-oxo-1,2-dihydropyridin-3-yl)methyl)-3-(ethyl(tetrahydro-2H-pyran-4-yl)amino)-2-methyl-5-(3-(morpholinylmethyl)cyclobutoxy)benzamide] | 0.05 to 0.5 | 0.01 to 0.1 | < 0.05 | 
3 | CCN(c1cc(O[C@H]2C[C@@H](N3CCNCC3)C2)cc(C(=O)NCc2c(C)cc(C)[nH]c2=O)c1C)C1CCOCC1 [Example 17, N-((4,6-dimethyl-2-oxo-1,2-dihydropyridin-3-yl)methyl)-3-(ethyl(tetrahydro-2H-pyran-4-yl)amino)-2-methyl-5-(cis-3-(piperazin-1-yl)cyclobutoxy)benzamide] | 0.05 to 0.5 | < 0.01 | < 0.05 | 
4 | CCN(c1cc(O[C@H]2C[C@H](N3CCNCC3)C2)cc(C(=O)NCc2c(C)cc(C)[nH]c2=O)c1C)C1CCOCC1 [Example 18, N-((4,6-dimethyl-2-oxo-1,2-dihydropyridin-3-yl)methyl)-3-(ethyl(tetrahydro-2H-pyran-4-yl)amino)-2-methyl-5-(trans-3-(piperazin-1-yl)cyclobutoxy)benzamide] | 0.05 to 0.5 | 0.01 to 0.1 | < 0.05 | 
5 | CCN(c1cc(O[C@H]2C[C@@H](N3CCN(C)CC3)C2)cc(C(=O)NCc2c(C)cc(C)[nH]c2=O)c1C)C1CCOCC1 [Example 19, N-((4,6-dimethyl-2-oxo-1,2-dihydropyridin-3-yl)methyl)-3-(ethyl(tetrahydro-2H-pyran-4-yl)amino)-2-methyl-5-(cis-3-(4-methylpiperazin-1-yl)cyclobutoxy)benzamide] | 0.05 to 0.5 | 0.01 to 0.1 | < 0.05 | 
6 | CCN(c1cc(O[C@H]2C[C@H](N3CCN(C)CC3)C2)cc(C(=O)NCc2c(C)cc(C)[nH]c2=O)c1C)C1CCOCC1 [Example 20, N-((4,6-dimethyl-2-oxo-1,2-dihydropyridin-3-yl)methyl)-3-(ethyl(tetrahydro-2H-pyran-4-yl)amino)-2-methyl-5-(trans-3-(4-methylpiperazin-1-yl)cyclobutoxy)benzamide] | 0.05 to 0.5 | 0.01 to 0.1 | < 0.05 | 
7 | CCN(c1cc(O[C@H]2C[C@@H](N3CCN(C(C)C)CC3)C2)cc(C(=O)NCc2c(C)cc(C)[nH]c2=O)c1C)C1CCOCC1 [Example 21, N-((4,6-dimethyl-2-oxo-1,2-dihydropyridin-3-yl)methyl)-3-(ethyl(tetrahydro-2H-pyran-4-yl)amino)-5-(cis-3-(4-isopropylpiperazin-1-yl)cyclobutoxy)-2-methylbenzamide] | 0.05 to 0.5 | 0.01 to 0.1 | < 0.05 | 
8 | CCN(c1cc(O[C@H]2C[C@H](N3CCN(C(C)C)CC3)C2)cc(C(=O)NCc2c(C)cc(C)[nH]c2=O)c1C)C1CCOCC1 [Example 22, N-((4,6-dimethyl-2-oxo-1,2-dihydropyridin-3-yl)methyl)-3-(ethyl(tetrahydro-2H-pyran-4-yl)amino)-5-(trans-3-(4-isopropylpiperazin-1-yl)cyclobutoxy)-2-methylbenzamide] | 0.05 to 0.5 | 0.01 to 0.1 | < 0.05 | 
9 | CCN1CCN([C@H]2C[C@@H](Oc3cc(C(=O)NCc4c(C)cc(C)[nH]c4=O)c(C)c(N(CC)C4CCOCC4)c3)C2)CC1 [Example 23, N-((4,6-dimethyl-2-oxo-1,2-dihydropyridin-3-yl)methyl)-3-(ethyl(tetrahydro-2H-pyran-4-yl)amino)-5-(cis-3-(4-ethylpiperazin-1-yl)cyclobutoxy)-2-methylbenzamide] | > 1 | 0.01 to 0.1 | < 0.05 | 
10 | CCN1CCN([C@H]2C[C@H](Oc3cc(C(=O)NCc4c(C)cc(C)[nH]c4=O)c(C)c(N(CC)C4CCOCC4)c3)C2)CC1 [Example 24, N-((4,6-dimethyl-2-oxo-1,2-dihydropyridin-3-yl)methyl)-3-(ethyl(tetrahydro-2H-pyran-4-yl)amino)-5-(trans-3-(4-ethylpiperazin-1-yl)cyclobutoxy)-2-methylbenzamide] | 0.05 to 0.5 | < 0.01 | < 0.05 | 
11 | CCN(c1cc(O[C@H]2C[C@@H](N3CCN(C(C)=O)CC3)C2)cc(C(=O)NCc2c(C)cc(C)[nH]c2=O)c1C)C1CCOCC1 [Example 25, cis-5-(3-(4-acetylpiperazin-1-yl)cyclobutoxy)-N-((4,6-dimethyl-2-oxo-1,2-dihydropyridin-3-yl)methyl)-3-(ethyl(tetrahydro-2H-pyran-4-yl)amino)-2-methylbenzamide] | < 0.05 | 0.01 to 0.1 | < 0.05 | 
12 | CCN(c1cc(O[C@H]2C[C@H](N3CCN(C(C)=O)CC3)C2)cc(C(=O)NCc2c(C)cc(C)[nH]c2=O)c1C)C1CCOCC1 [Example 26, trans-5-(3-(4-acetylpiperazin-1-yl)cyclobutoxy)-N-((4,6-dimethyl-2-oxo-1,2-dihydropyridin-3-yl)methyl)-3-(ethyl(tetrahydro-2H-pyran-4-yl)amino)-2-methylbenzamide] | 0.05 to 0.5 | 0.01 to 0.1 | < 0.05 | 
13 | CCN(c1cc(O[C@H]2C[C@@H](N3CCN(S(C)(=O)=O)CC3)C2)cc(C(=O)NCc2c(C)cc(C)[nH]c2=O)c1C)C1CCOCC1 [Example 27, N-((4,6-dimethyl-2-oxo-1,2-dihydropyridin-3-yl)methyl)-3-(ethyl(tetrahydro-2H-pyran-4-yl)amino)-2-methyl-5-(cis-3-(4-(methylsulfonyl)piperazin-1-yl)cyclobutoxy)benzamide] | < 0.05 | < 0.01 | < 0.05 | 
14 | CCN(c1cc(O[C@H]2C[C@H](N3CCN(S(C)(=O)=O)CC3)C2)cc(C(=O)NCc2c(C)cc(C)[nH]c2=O)c1C)C1CCOCC1 [Example 28, N-((4,6-dimethyl-2-oxo-1,2-dihydropyridin-3-yl)methyl)-3-(ethyl(tetrahydro-2H-pyran-4-yl)amino)-2-methyl-5-(trans-3-(4-(methylsulfonyl)piperazin-1-yl)cyclobutoxy)benzamide] | < 0.05 | 0.01 to 0.1 | < 0.05 | 
15 | CCN(c1cc(O[C@H]2C[C@H](CN3CCOCC3)C2)cc(C(=O)NCc2c(C)cc(C)[nH]c2=O)c1Cl)C1CCOCC1 [Example 29, 2-chloro-N-((4,6-dimethyl-2-oxo-1,2-dihydropyridin-3-yl)methyl)-3-(ethyl(tetrahydro-2H-pyran-4-yl)amino)-5-(trans-3-(morpholinylmethyl)cyclobutoxy)benzamide] | 0.05 to 0.5 | 0.01 to 0.1 | < 0.05 | 
16 | CCN(c1cc(O[C@H]2C[C@H](CN3C[C@@H](C)O[C@@H](C)C3)C2)cc(C(=O)NCc2c(C)cc(C)[nH]c2=O)c1Cl)C1CCOCC1 [Example 30, 2-chloro-N-((4,6-dimethyl-2-oxo-1,2-dihydropyridin-3-yl)methyl)-5-(trans-3-((cis-2,6-dimethylmorpholinyl)methyl)cyclobutoxy)-3-(ethyl(tetrahydro-2H-pyran-4-yl)amino)benzamide] | 0.05 to 0.5 | 0.01 to 0.1 |  | < 0.05
